What was measured:
rotarod performance = test: Rotarod test (motor coordination); type: in vivo, Albino Swiss mice; details: 5, 15, and 30 mg/kg i.p., 30 min before the test trial, mice
Experimental: The animals were trained for 3 consecutive days at the speed of 18 rpm, one session per day for 3 min. If a mice fell during the habituation period, it was placed back on the apparatus. On the following day, the test trial was performed. After the mice were placed on the apparatus (Mouse Rota-Rod NG, UGO BASILE S.R.L.) moving at the speed of 12 rpm, the accelerating mode was started (maximum speed – 24 rpm). The latency to fall was measured during 3-min test session.

Cytochrome P450 2D6 = Cytochrome P450 2D6 (Homo sapiens, UniProt P10635); test: Cytochrome P450 inhibition, 2D6; type: in vitro ADME
Cytochrome P450 2C9 = Cytochrome P450 2C9 (Homo sapiens, UniProt P11712); test: Cytochrome P450 inhibition, 2C9; type: in vitro ADME
[1] = tested on: field potentials in frontal cortical slices; test: Electrophysiology: field potentials in frontal cortical slices, WILD mice; design: species or system C57BL/6J WT mice; details: for Before-after effect of the drug on FP amplitude: WILD group; for S (factor proportional to the slope of the curve) / Uh (stimulation intensity evoking FP of half-maximum amplitude) / Vmax (maximum FP amplitude, Boltzmann fit): slices from WILD mice, after 20 min drug superfusion
Source text: (§1) Mice (wild and KO, approx. 25 g) were housed under a controlled light/dark cycle (light on: 0700–1900) and had free access to standard food and tap water. Mice were anesthetized with isoflurane (Aerrane, Baxter) decapitated, their brains were dissected and immersed in an ice-cold artificial cerebrospinal fluid (ACSF) of the following composition (in mM): NaCl (130), KCl (5), CaCl2 (2.5), MgSO4 (1.3), KH2PO4 (1.25), NaHCO3 (26), and glucose (10), bubbled with a mixture of 95% O2/5% CO2 to pH 7.4. Frontal cortical slices (bregma 1.9–1.4, 380 μm) were cut in a coronal plane using a vibrating microtome and they were stored at 32°C. A single slice was next transferred to the recording chamber (32°C ± 0.5°C) and superfused at 2.5 ml/min with a ACSF.
(§2) A bipolar stimulating electrode (FHC) was placed approx. 2 mm lateral to the midline and approx. 1.0 mm below the pial surface (in layer V) (Figure 1). Stimuli (duration: 0.2 ms) were applied at 0.033 Hz using a constant-current stimulus isolation unit (WPI). Field potentials (FPs) were recorded using glass micropipettes filled with ACSF (1–3 MΩ), which were placed approx. 0.2 mm below the cortical surface (in layer II/III). FPs were amplified (Axoprobe 1A, Axon Instruments), A/D converted at 10 kHz and stored using Micro1401 interface and Signal 4 software (CED).
(§3) The stimulus–response curves obtained for each slice were fit with the Boltzmann equation: Vi = Vmax/(1 + exp[(u - Uh)/-S]), where Vmax is the maximum FP amplitude; u is the stimulation intensity; Uh is the stimulation intensity evoking FP of half-maximum amplitude; S is the factor proportional to the slope of the curve; “exp” is exponentiation – mathematical operation. The results are expressed as the means ± SEM. Statistical analyses were carried out using t-test ([Tokarski et al., 2011]).
(§4) For each slice, at the beginning of the experiment an input-output curve was generated in ACSF. A stimulus-response (input-output) curve was made for each slice. […] One response was recorded at each stimulation intensity. […] Statistical analyzes were carried out using paired t-test and ANOVA.

Cytochrome P450 2C19 = Cytochrome P450 2C19 (Homo sapiens, UniProt P33261); test: Cytochrome P450 inhibition, 2C19; type: in vitro ADME
mGlu7 receptor [2] = biological target: T1, mGlu7 receptor (Homo sapiens, UniProt Q14831); test: HTRF cAMP assay: potentiation of forskolin action without agonist (inverse agonist properties); type: cell-based; details: T-REx 293 cells, 5 μM forskolin, n = 3, read-out: IC50, potentiation of forskolin action (elevating cAMP concentration), inverse agonist properties
T1 construct: expressed in transfected cells
Experimental: (§5) A homogeneous time-resolved fluorescence (HTRF) cAMP dynamic 2 (Cisbio, Codolet, France) assay was performed as previously described ([Chruścicka et al., 2015]) with recombinant cell lines. Briefly, HEK 293 T-REx cells stably expressing mGlu7 receptor, were collected and suspended in Hanks-HEPES buffer. The cell suspension was added to compounds solution with 5 μM of forskolin (final concentration). After 5 min incubation in 37°C, 5 μl of cAMP-d2 conjugate in lysis buffer was added and mixed with the 10 μl cell suspension by means of an automated pipetting system (Tecan Evo 200, Tecan, Mannedorf, Switzerland). Next, 5 μl anti-cAMP cryptate conjugate was added and the fluorescence at 620 and 665 nm was read after 1 h (Tecan Infinite M1000). The results are shown as the 665 nm/620 nm ratio multiplied by 10^4. The detected signal was inversely proportional to the concentration of cAMP in the sample. […] Each experiment was performed three times (n = 3), and each data point was in triplicate.
Both compounds dose-dependently potentiated forskolin action, elevating cAMP concentration in the T-REx 293 cells (Figure 2B). […] This effect was not observed for an antagonist of mGluR7 – XAP044.

[3] = tested on: field potentials in frontal cortical slices; test: Electrophysiology: field potentials in frontal cortical slices, mGlu7 KO mice; details: for Before-after effect of the drug on FP amplitude: KO animals; for S (factor proportional to the slope of the curve) / Uh (stimulation intensity evoking FP of half-maximum amplitude) / Vmax (maximum FP amplitude, Boltzmann fit): slices from mGlu7 KO mice, after 20 min drug superfusion
Source text: as §1, §2, §3, §4

mGlu7 receptor [4] = biological target: T1, mGlu7 receptor; test: HTRF cAMP assay: antagonism of L-Glu (EC80) inhibition of forskolin-stimulated cAMP accumulation (NAM profile); type: cell-based; details: HEK 293 T-REx cells expressing mGlu7; 6.26 mM L-Glu (EC80); 5 μM forskolin; n = 3; read-out: IC50, antagonism of L-Glu inhibition of cAMP accumulation in the presence of forskolin
Experimental: as §5

[5] = tested on: MK-801-induced hyperactivity; test: MK-801-induced hyperactivity; type: in vivo, Albino Swiss mice; details: 30 min prior to MK-801 (0.35 mg/kg, i.p.), mice
Experimental: The locomotor activity was recorded individually for each animal in OPTO-M3 locomotor activity cages (Columbus Instrument) linked online to a compatible PC activity, as described previously by [Woźniak et al., 2016b]. Each cage (13 cm × 23 cm × 15 cm) was surrounded with an array of photocell beams. […] The locomotor activity was measured for 60 min immediately after MK-801 administration.

[6] = tested on: DOI-induced head twitches; test: DOI-induced head twitches; type: in vivo, Albino Swiss mice; details: mice; for Effect on DOI-induced head twitches, acute: 30 min before DOI (2.5 mg/kg)
Experimental: The experiment was performed according to previously described procedure ([Wierońska et al., 2012], [2013]). Immediately after a 30 min acclimatization period, DOI (2.5 mg/kg, i.p.) was administered in order to induce head twitches. The number of head twitches was then counted for 20 min. […]

T1 sequence (Q14831 35-915): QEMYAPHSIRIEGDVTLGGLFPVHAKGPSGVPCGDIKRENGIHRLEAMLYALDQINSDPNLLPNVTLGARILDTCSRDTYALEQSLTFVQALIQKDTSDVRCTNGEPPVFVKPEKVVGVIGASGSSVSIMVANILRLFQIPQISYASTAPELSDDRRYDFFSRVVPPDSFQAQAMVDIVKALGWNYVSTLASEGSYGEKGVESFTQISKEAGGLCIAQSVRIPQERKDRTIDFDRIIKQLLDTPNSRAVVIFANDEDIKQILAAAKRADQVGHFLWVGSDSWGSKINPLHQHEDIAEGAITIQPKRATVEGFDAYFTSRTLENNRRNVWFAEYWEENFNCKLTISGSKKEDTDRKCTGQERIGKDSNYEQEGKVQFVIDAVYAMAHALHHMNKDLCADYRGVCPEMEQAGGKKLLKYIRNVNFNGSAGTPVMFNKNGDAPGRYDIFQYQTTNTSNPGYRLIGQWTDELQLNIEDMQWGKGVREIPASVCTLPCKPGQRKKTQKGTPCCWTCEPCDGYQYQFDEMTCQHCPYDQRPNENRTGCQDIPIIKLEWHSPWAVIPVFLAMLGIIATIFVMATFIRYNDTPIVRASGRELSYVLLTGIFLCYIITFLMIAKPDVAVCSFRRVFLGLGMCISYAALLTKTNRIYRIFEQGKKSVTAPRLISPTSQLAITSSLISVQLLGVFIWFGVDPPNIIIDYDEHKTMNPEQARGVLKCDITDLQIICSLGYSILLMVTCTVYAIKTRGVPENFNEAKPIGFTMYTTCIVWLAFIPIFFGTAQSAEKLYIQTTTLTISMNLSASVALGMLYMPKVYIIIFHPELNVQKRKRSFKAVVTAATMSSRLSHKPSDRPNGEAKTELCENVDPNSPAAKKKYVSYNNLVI
Chain of Cytochrome P450 2C9 (P11712 whole entry, the tested form may be a part): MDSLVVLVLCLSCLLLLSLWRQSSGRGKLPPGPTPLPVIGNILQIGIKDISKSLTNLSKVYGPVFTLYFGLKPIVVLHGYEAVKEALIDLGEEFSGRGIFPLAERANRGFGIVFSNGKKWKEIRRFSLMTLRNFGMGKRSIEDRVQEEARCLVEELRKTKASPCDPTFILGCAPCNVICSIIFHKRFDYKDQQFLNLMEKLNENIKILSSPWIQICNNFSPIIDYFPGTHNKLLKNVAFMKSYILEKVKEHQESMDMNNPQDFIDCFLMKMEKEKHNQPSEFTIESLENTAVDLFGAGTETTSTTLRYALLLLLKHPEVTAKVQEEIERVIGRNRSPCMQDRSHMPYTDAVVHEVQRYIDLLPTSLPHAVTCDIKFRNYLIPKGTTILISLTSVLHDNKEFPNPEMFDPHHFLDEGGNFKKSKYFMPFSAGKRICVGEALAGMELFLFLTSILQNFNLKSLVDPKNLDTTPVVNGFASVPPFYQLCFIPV
Chain of Cytochrome P450 2D6 (P10635 whole entry): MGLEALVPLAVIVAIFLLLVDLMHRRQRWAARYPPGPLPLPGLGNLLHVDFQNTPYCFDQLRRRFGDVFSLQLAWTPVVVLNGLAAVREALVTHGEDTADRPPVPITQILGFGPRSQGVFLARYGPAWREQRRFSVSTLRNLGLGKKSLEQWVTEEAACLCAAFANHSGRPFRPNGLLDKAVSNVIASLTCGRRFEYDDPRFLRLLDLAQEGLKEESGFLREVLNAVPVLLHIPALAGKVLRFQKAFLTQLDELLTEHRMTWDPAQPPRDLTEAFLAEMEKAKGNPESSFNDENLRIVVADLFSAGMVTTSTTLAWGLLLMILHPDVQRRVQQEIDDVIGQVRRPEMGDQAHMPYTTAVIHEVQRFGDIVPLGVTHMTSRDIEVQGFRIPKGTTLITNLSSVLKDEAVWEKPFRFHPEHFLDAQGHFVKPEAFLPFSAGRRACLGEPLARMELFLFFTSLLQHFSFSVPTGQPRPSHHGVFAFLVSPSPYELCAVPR
Chain of Cytochrome P450 2C19 (P33261 whole entry): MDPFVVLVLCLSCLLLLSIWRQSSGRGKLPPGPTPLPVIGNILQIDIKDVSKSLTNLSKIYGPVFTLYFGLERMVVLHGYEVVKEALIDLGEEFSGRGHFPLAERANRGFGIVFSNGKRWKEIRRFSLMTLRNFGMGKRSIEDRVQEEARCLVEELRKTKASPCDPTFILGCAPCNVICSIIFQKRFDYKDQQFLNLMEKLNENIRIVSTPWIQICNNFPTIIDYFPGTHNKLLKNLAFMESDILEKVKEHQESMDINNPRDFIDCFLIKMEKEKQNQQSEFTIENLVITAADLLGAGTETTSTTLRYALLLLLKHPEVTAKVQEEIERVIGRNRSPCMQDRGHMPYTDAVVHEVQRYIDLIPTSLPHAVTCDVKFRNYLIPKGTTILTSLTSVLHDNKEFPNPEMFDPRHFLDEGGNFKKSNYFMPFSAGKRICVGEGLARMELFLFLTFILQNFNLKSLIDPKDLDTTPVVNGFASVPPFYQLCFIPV

Compound	Motor impairments in the rotarod test (latency to fall) (rotarod performance)	IC50 (Cytochrome P450 2D6) [nM]	IC50 (Cytochrome P450 2C9) [nM]	Before-after effect of the drug on FP amplitude [1] [%]	S (factor proportional to the slope of the curve) [1]	Uh (stimulation intensity evoking FP of half-maximum amplitude) [1]	Vmax (maximum FP amplitude, Boltzmann fit) [1]	IC50 (Cytochrome P450 2C19) [nM]	IC50 (mGlu7 receptor [2]) [nM]	Before-after effect of the drug on FP amplitude [3]	S (factor proportional to the slope of the curve) [3]	Uh (stimulation intensity evoking FP of half-maximum amplitude) [3]	Vmax (maximum FP amplitude, Boltzmann fit) [3]	IC50 (mGlu7 receptor [4]) [nM]	Effect on MK-801-induced hyperactivity ([5]; 15 mg/kg i.p.)	Effect on DOI-induced head twitches, chronic (10 days) administration ([6]; 5 mg/kg)	further results
CCc1nc2c(o1)CC(c1ccc(C)cc1C)CC2=O (stereo not drawn) [ADX71743, 6-(2,4-Dimethylphenyl)-2-ethyl-6,7-dihydro-4(5H)-benzoxazolone]	did not induce detectable motor impairments	> 10000	> 10000	116	6.53 ± 0.3	26.07 ± 1.3	2.531 ± 0.1^∗∗∗	3300 to 10000	220	106%	7.12 ± 0.41	26.06 ± 1.18	2.36 ± 0.18	440	decreased MK-801-induced hyperactivity in a statistically significant way	statistical effect	Effect on MK-801-induced hyperactivity ([5]; 5 mg/kg i.p.): decreased MK-801-induced hyperactivity in a statistically significant way; Effect on DOI-induced head twitches, chronic (10 days) administration ([6]; 2.5 mg/kg): statistical effect
COc1ccc(-c2cc3onc(-c4ccncc4)c3c(=O)n2C)cc1 [MMPIP, 6-(4-Methoxyphenyl)-5-methyl-3-(4-pyridinyl)-isoxazolo(4,5-c)pyridin-4(5H)-one]	did not induce detectable motor impairments	> 10000	> 10000	123	9.37 ± 0.83	26.93 ± 1.6	2.53 ± 0.3^∗∗∗	< 1100	340	100,1%	8.6 ± 1.01	22.1 ± 1.4	2.16 ± 0.2	380	significant reversal of MK-801-induced effect	statistically significant effect	Before-after effect, WILD group higher than KO animals ([1]; WILD vs. KO): about 23%; Effect on DOI-induced head twitches, acute ([6]; 5 mg/kg i.p.): significantly reduced DOI-induced head twitches; Effect on DOI-induced head twitches, acute ([6]; 10 mg/kg i.p.): significantly reduced DOI-induced head twitches; Effect on DOI-induced head twitches, chronic (10 days) administration ([6]; 10 mg/kg): statistically significant effect; Effect on DOI-induced head twitches, acute ([6]; 15 mg/kg i.p.): significantly reduced DOI-induced head twitches
